Laboratory results from US7083940B2, “Pregnancy-associated plasma protein-A2 (PAPP-A2)” (Como Biotech ApS, priority 2000, dated 2006).

Test system: rIGFBP-5
Assay: Ligand blotting with radiolabeled IGF-II, activity of PAPP-A2 against IGFBP-5
Format: biochemical
Details: medium from cells transfected with pPA2
Description: Medium from 293T cells transfected with empty vector (−), or cDNA encoding PAPP-A2 (pPA2) (+) was incubated with each of the six IGFBPs (BP1–BP6), and the activity was assessed by ligand blotting using radiolabeled IGF-II.
Ligand blotting (Conover et al., 1993, J Clin Invest 91, 1129–37) with radiolabeled IGF-II (Bachem) was used to assay for activity against IGFBP-1 (from HepG2 conditioned medium), rIGFBP-2 (GroPep), rIGFBP-3 (gift of D. Powell), rIGFBP-4 (Austral), rIGFBP-5 (gift of D. Andress), and rIGFBP-6 (Austral). […] Experiments were carried out with media from cells transfected with pPA2 or empty vector.

“PAPP-A2: recombinant pregnancy-associated plasma protein-A2, SEQ ID NO:2, metzincin metalloproteinase expressed in 293T cells” was tested, and the “Dependence of cleavage on IGF” value was “independent of the presence of IGF”.
